Biological target: T1, ERα (Homo sapiens, UniProt P03372)
T1 construct: host or cells: MCF7
T1 sequence (P03372 1-595): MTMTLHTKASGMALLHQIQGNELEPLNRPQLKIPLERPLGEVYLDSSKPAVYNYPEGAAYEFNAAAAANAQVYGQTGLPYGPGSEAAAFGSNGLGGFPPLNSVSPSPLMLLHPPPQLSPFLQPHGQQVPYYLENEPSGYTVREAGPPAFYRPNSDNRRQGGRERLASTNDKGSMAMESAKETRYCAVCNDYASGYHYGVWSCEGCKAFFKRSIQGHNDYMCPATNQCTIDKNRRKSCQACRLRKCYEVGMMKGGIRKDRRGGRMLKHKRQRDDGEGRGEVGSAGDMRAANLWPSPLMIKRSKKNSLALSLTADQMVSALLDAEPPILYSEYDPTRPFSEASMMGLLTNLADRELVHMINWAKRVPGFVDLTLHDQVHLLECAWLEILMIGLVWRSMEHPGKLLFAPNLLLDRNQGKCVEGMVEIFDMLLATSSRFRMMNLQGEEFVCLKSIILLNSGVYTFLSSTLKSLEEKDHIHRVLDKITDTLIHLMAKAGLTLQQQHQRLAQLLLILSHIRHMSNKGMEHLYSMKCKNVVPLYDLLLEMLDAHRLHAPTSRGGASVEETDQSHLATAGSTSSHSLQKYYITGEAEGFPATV
Experiment: Estrogen receptor degradation activity: breast cancer cell ERα in cell western assay (MCF7 cells)
Type: cell-based
Conditions: for % Degradation At 0.3 μM: 4 hours, relative to fulvestrant 0.1 μM positive control; for DC50: 4 hours post compound addition, concentration which degrades 50% of the estrogen receptor, read-out: Degradation IC50
Procedure: Test: Estrogen Receptor Degradation Activity Said test involves measuring the in vitro degradation activity of the compounds of the Table 1a. The measurements of the degradation activities were made using a breast cancer cell ERα in cell western assay as described hereunder. MCF7 cells (ATCC) were seeded in 384 wells microplate (collagen coated) at a concentration of 10000 cells/30 μL per well in red phenol free MEM alpha medium (invitrogen) containing 5% charcoal dextran striped FBS. The following day, 9 points serial 1:5 dilution of each compound was added to the cells in 2.5p L at final concentrations ranging from 0.3-0.0000018 μM (in table 2), or 0.1 μM for fulvestrant (using as positive control). At 4 hours post compound addition the cells were fixed by adding 25 μL of formalin (final concentration 5% formalin containing 0.1% triton) for 10 minutes at room temperature and then washed twice with PBS. Then, 50 μL of LI-COR blocking buffer containing 0.1% Triton was added to plate for 30 minutes at room temperature. LI-COR blocking buffer was removed and cells were incubated overnight at cold room with 50 μL anti-ER rabbit monoclonal antibody (Thermo scientific MA1-39540) diluted at 1:1000 in LI-COR blocking buffer containing 0.1% tween-20. Wells which were treated with blocking buffer but no antibody were used as background control. Wells were washed twice with PBS (0.1% tween-20) and incubated at 37° C. for 60 minutes in LI-COR (0.1% tween-20) containing goat anti-rabbit antibody Alexa 488 (1:1000) and Syto-64 a DNA dye (2 μM final concentration). Cells were then washed 3 times in PBS and scanned in ACUMEN explorer (TTP-Labtech). Integrated intensities in the green fluorescence and red fluorescence were measured to determine the levels of ERα and DNA respectively. The degradation activity with respect to estrogen receptors in this test is given by the concentration which degrades 50% of the estrogen receptor (or IC50) in nM. […] DMSO−fulvestrant)).

SMILES	% Degradation At 0.3 μM [%]	DC50 [nM]
Cl.O=C(O)c1ccc2c(c1)CCCC(c1ccccc1)=C2c1ccc(CC2CN(CCCF)C2)cc1 [Example 1, 9-(4-((1-(3-Fluoropropyl)azetidin-3-yl)methyl)phenyl)-8-phenyl-6,7-dihydro-5H-benzo[7]annulene-3-carboxylic Acid Hydrochloride]	83	0.4
O=C(O)c1ccc2c(c1)CCCC(c1ccc(Cl)cc1Cl)=C2c1ccc(CC2CN(CCCF)C2)cc1 [Example 2, 8-(2,4-dichlorophenyl)-9-(4-((1-(3-fluoropropyl)azetidin-3-yl)methyl)phenyl)-6,7-dihydro-5H-benzo[7]annulene-3-carboxylic Acid]	91	0.3
O=C(O)c1ccc2c(c1)CCCC(c1ccccc1Cl)=C2c1ccc(CC2CN(CCCF)C2)cc1 [Example 3, 8-(2-chlorophenyl)-9-(4-((1-(3-fluoropropyl)azetidin-3-yl)methyl)phenyl)-6,7-dihydro-5H-benzo[7]annulene-3-carboxylic acid]	89	0.3
Cl.O=C(O)c1ccc2c(c1)CCCC(C1CCC(F)(F)CC1)=C2c1ccc(CC2CN(CCCF)C2)cc1 [Example 4, 8-(4,4-Difluorocyclohexyl)-9-(4-((1-(3-fluoropropyl)azetidin-3-yl)methyl)phenyl)-6,7-dihydro-5H-benzo[7]Annulene-3-carboxylic Acid Hydrochloride]	85	0.9
Cl.O=C(O)c1ccc2c(c1)CCCC(C1=CCC(F)(F)CC1)=C2c1ccc(CC2CN(CCCF)C2)cc1 [Example 5, 8-(4,4-difluorocyclohex-1-en-1-yl)-9-(4-((1-(3-fluoropropyl)azetidin-3-yl)methyl)phenyl)-6,7-dihydro-5H-benzo[7]annulene-3-carboxylic acid]	86	0.5
Cl.O=C(O)c1ccc2c(c1)CCCC(C1CCCC1)=C2c1ccc(CC2CN(CCCF)C2)cc1 [Example 6, 8-cyclopentyl-9-(4-((1-(3-fluoropropyl)azetidin-3-yl)methyl)phenyl)-6,7-dihydro-5H-benzo[7]annulene-3-carboxylic acid]	82	0.8
Cc1ccc(C2=C(c3ccc(CC4CN(CCCF)C4)cc3)c3ccc(C(=O)O)cc3CCC2)c(Cl)c1.Cl [Example 7, 8-(2-chloro-4-methylphenyl)-9-(4-((1-(3-fluoropropyl)azetidin-3-yl)methyl)phenyl)-6,7-dihydro-5H-benzo[7]annulene-3-carboxylic acid]	90	0.5
Cl.O=C(O)c1ccc2c(c1)CCCC(c1ccc(F)cc1Cl)=C2c1ccc(CC2CN(CCCF)C2)cc1 [Example 8, 8-(2-chloro-4-fluorophenyl)-9-(4-((1-(3-fluoropropyl)azetidin-3-yl)methyl)phenyl)-6,7-dihydro-5H-benzo[7]annulene-3-carboxylic acid]	92	0.4
Cl.O=C(O)c1ccc2c(c1)CCCC(c1cccc(F)c1Cl)=C2c1ccc(CC2CN(CCCF)C2)cc1 [Example 9, 8-(2-chloro-3-fluorophenyl)-9-(4-((1-(3-fluoropropyl)azetidin-3-yl)methyl)phenyl)-6,7-dihydro-5H-benzo[7]annulene-3-carboxylic acid]	92	0.3
Cc1ccc(C2=C(c3ccc(CC4CN(CCCF)C4)cc3)c3ccc(C(=O)O)cc3CCC2)c(C)c1.Cl [Example 10, 8-(2,4-dimethylphenyl)-9-(4-((1-(3-fluoropropyl)azetidin-3-yl)methyl)phenyl)-6,7-dihydro-5H-benzo[7]annulene-3-carboxylic acid]	92	0.3
Cc1ccc(C2=C(c3ccc(CC4CN(CCCF)C4)cc3)c3ccc(C(=O)O)cc3CCC2)c(F)c1.Cl [Example 11, 8-(2-fluoro-4-methylphenyl)-9-(4-((1-(3-fluoropropyl)azetidin-3-yl)methyl)phenyl)-6,7-dihydro-5H-benzo[7]annulene-3-carboxylic acid]	91	0.4
Cl.O=C(O)c1ccc2c(c1)CCCC(c1ccc(Cl)cc1F)=C2c1ccc(CC2CN(CCCF)C2)cc1 [Example 12, 8-(4-chloro-2-fluorophenyl)-9-(4-((1-(3-fluoropropyl)azetidin-3-yl)methyl)phenyl)-6,7-dihydro-5H-benzo[7]annulene-3-carboxylic acid]	93	0.4
CC1(C)CCC(C2=C(c3ccc(CC4CN(CCCF)C4)cc3)c3ccc(C(=O)O)cc3CCC2)CC1.Cl [Example 13, 8-(4,4-dimethylcyclohexyl)-9-(4-((1-(3-fluoropropyl)azetidin-3-yl)methyl)phenyl)-6,7-dihydro-5H-benzo[7]annulene-3-carboxylic acid]	85	0.3

Results, then the compound that gave them:

% Degradation At 0.3 μM [%]	DC50 [nM]	SMILES
76	0.6	COC(c1ccc(C2=C(c3ccc(Cl)cc3Cl)CCCc3cc(C(=O)O)ccc32)cc1)C1CN(CCCF)C1 (single isomer, unassigned; isomer 2) [Example 228, 8-(2,4-dichlorophenyl)-9-(4-((1-(3-fluoropropyl)azetidin-3-yl)(methoxy)methyl)phenyl)-6,7-dihydro-5H-benzo[7]annulene-3-carboxylic Acid Isomer 2]
78	0.7	CCOC(c1ccc(C2=C(c3ccc(Cl)cc3Cl)CCCc3cc(C(=O)O)ccc32)cc1)C1CN(CCCF)C1 (single isomer, unassigned; isomer 2) [Example 230, 8-(2,4-dichlorophenyl)-9-(4-(ethoxy(1-(3-fluoropropyl)azetidin-3-yl)methyl)phenyl)-6,7-dihydro-5H-benzo[7]annulene-3-carboxylic Acid Isomer 2]
100	0.4	CC(O)(c1ccc(C2=C(c3ccc(Cl)cc3Cl)CCCc3cc(C(=O)O)ccc32)cc1)C1CN(CCCF)C1.Cl (single isomer, unassigned; isomer 2) [Example 236, 8-(2,4-dichlorophenyl)-9-(4-(1-(1-(3-fluoropropyl)azetidin-3-yl)-1-hydroxyethyl)phenyl)-6,7-dihydro-5H-benzo[7]annulene-3-carboxylic Acid, Hydrochloride Isomer 2]
86	13.6	NC(c1ccc(C2=C(c3ccc(Cl)cc3Cl)CCCc3cc(C(=O)O)ccc32)cc1)C1CN(CCCF)C1 (single isomer, unassigned; isomer 2) [Example 244, 9-(4-(Amino(1-(3-fluoropropyl)azetidin-3-yl)methyl)phenyl)-8-(2,4-dichlorophenyl)-6,7-dihydro-5H-benzo[7]annulene-3-carboxylic Acid Isomer 2]
80	0.8	C[C@H]1CC[C@@H](C2=C(c3ccc(CC4CN(CCCF)C4)cc3)c3ccc(C(=O)O)cc3CCC2)CC1 [Example 14, 9-(4-((1-(3-fluoropropyl)azetidin-3-yl)methyl)phenyl)-8-((1s,4s)-4-methylcyclohexyl)-6,7-dihydro-5H-benzo[7]annulene-3-carboxylic acid]
86	4	C[C@H]1CC[C@H](C2=C(c3ccc(CC4CN(CCCF)C4)cc3)c3ccc(C(=O)O)cc3CCC2)CC1 [Example 15, 9-(4-((1-(3-fluoropropyl)azetidin-3-yl)methyl)phenyl)-8-((1r,4r)-4-methylcyclohexyl)-6,7-dihydro-5H-benzo[7]annulene-3-carboxylic acid]
94	0.4	COc1ccc(C2=C(c3ccc(CC4CN(CCCF)C4)cc3)c3ccc(C(=O)O)cc3CCC2)c(F)c1 [Example 16, 8-(2-fluoro-4-methoxyphenyl)-9-(4-((1-(3-fluoropropyl)azetidin-3-yl)methyl)phenyl)-6,7-dihydro-5H-benzo[7]annulene-3-carboxylic acid]
